Several values for one entry are separate records, joined by “and”; a condition that tells them apart may be missing. Identical values can stand only once.
Columns and labels:
[1] = Treatment of 2,4-D with hydrogen peroxide alone against hydrogen peroxide/Fe-gluconate; conditions: 250 mL; 200 microliters 50% hydrogen peroxide, plus 200 microliters Fe-GLC in the combination; after four hours; untreated 130 ppb
Procedure: The dissolved sodium bicarbonate increased the alkalinity of the water somewhat, causing the water to mimic a natural water source. Two hundred fifty milliliters of this solution was distributed into three 500 mL Erlenmeyer flasks. […] The flasks were then covered with parafilm and swirled to facilitate mixing of the solution. After four hours a sample from each flask was taken to the pesticide lab at Virginia Tech and analyzed by gas chromatography (GC) for 2,4-D. The findings were as follows: […]

[2] = Treatment of groundwater contaminated with BTEX and MtBE; conditions: 250 mL groundwater; 1 mL 35% H2O2, plus 1 mL Fe-GLC in the combination; untreated 56 ppb
[3] = as above; conditions: 250 mL groundwater; 1 mL 35% H2O2, plus 1 mL Fe-GLC in the combination; untreated 34 ppb
[4] = as above; conditions: 250 mL groundwater; 1 mL 35% H2O2, plus 1 mL Fe-GLC in the combination; untreated 171 ppb
[5] = as above; conditions: 250 mL groundwater; 1 mL 35% H2O2, plus 1 mL Fe-GLC in the combination; untreated 159 ppb
[6] = as above; conditions: 250 mL groundwater; 1 mL 35% H2O2, plus 1 mL Fe-GLC in the combination; untreated 27 ppb
Fecal Coliform = assay: Disinfecting wastewater, peroxide alone vs Fe-GLC and peroxide; type: cell-based; conditions: 20 mg H2O2 (50 microliters 35%), plus 50 microliters Fe-GLC in the combination; after twenty minutes; control 2200
From the text: A sample of wastewater was collected from the influent of the chlorine contact chamber of the York River Wastewater Treatment Plant in Yorktown, Va. The samples were divided equally into three clean 500 milliliter sample containers from the single sample taken. The first sample served as a control and was set aside. […] Each sample was capped and shaken briefly to mix the contents. After twenty minutes, sub-samples were taken from each vessel and pored into fecal coliform sample containers for analysis at the Hampton Roads Sanitary District lab.

[7] = Vapor suppression spray test, hydrogen sulfide above test water; conditions: no treatment 18
Procedure: A solution of ferric glucontate treatment was prepared using 2.0 M ferric gluconate solution along with distilled water to achieve a final concentration of ferric gluconate at 5 mg/ml, as ferric iron.
A five gallon bucket containing five liters of de-ionized water was infused with 10 parts per million of total sulfide using technical grade anhydrous Sodium Hydrosulfide. The pH of the water was then adjusted to a pH of 7.0 using a dilute solution of hydrochloric acid.
After cleaning the bucket for control testing for each study, five additional liters of de-ionized water was added and the same quantity of sulfide was infused into the fresh water and the pH adjusted to 7.0.

[8] = 10 min; 33 mg/l H2O2 (+44 μg/l VTX as total iron in the combination)
Procedure: This step was seen to minimize the amount of natural oxidation of added sulfide by sulfide-oxidizing bacteria present in the biosolids. Sodium hydrosulfide was added to 35 liters of wastewater to achieve a starting total sulfide concentration of ˜10 mg/l sulfide. The pH was adjusted within the aquarium to a pH of 7.0 using a dilute solution of hydrochloric acid.
The Odalog was affixed using a ring stand to achieve a one centimeter gap between the intake of the Odalog and the surface of the aquarium. […] Wastewater was pulled from near the bottom of the aquarium using a Watson-Marlow Peristaltic Pump capable of delivering 0.001-190 mls/minute. […] The volume of the line prior to discharge equated to ˜100 milliliters. A delivery spray system was mimicked by drilling small holes (0.35 mm) into 0.25 inch tubing distributed evenly above the aquarium. […] A filtration devise was installed in-line to minimize particle clogging with the intake in the tank above the settled biosolids to aid in this process.
No catalyst was added along with the peroxide in Treatment 3.
Testing for total sulfide in solution was conducted prior to beginning treatment at three depths.

[9] = Treatment of sulfides in municipal wastewater using ferric chelants and hydrogen peroxide
Procedure: Total sulfides were tested for using Standard Methods 4500-S^2− D with a Hach Chemical Company (of Loveland, Colo.) DR 2000 Spectrophotometer and reagents from Hach specific for this particular test. To keep total sulfides within the range of the test, samples were diluted with distilled water prior to conducting the test as per Hach instructions.
Tests for total sulfide were conducted after 5, 15, and 30 minutes of contact time on each of the seven liter test jars.

[10] = after 2 days; cited from earlier work
[11] = test system: total heterotrophic bacteria; assay: Disinfection of wastewater using chelated iron compounds; type: cell-based; conditions: 30 min, raw average 18,188 CFUs
Procedure: The clarified supernatant was then pored off of the top of the settled solids within the sample. The supernatant was then mixed and four samples were collected to determine untreated heterotrophic bacteria counts. […] were dissolved in distilled water at 0.4334M. Ferric chloride was added in amounts to achieve saturation of chelant sites on the respective chelants. […] Twenty individual liter samples of supernatant were then decanted from the well-mixed wastewater sample for testing. Four chelated iron products with peroxide were tested at two test concentrations and compared to samples receiving peroxide only and iron chelate only. […] Samples were then decanted to sterile sample containers containing sodium thiosulfate to stop the oxidation process and preserve the sample. Samples were then placed in a refrigerator until all samples were finished. Samples were packaged in a standard cooler with ice packs and sent via overnite delivery to ProChem Labs in Lynchburg, Va. for analysis for total heterotrophic bacteria counts.

[12] = Treatment of sulfides in municipal wastewater using ferric chelants and ozone; conditions: ozone ~13.4 ppm, 4 ppm ferric chelant where used; for sulfide remaining: start 13.70
From the text: The raw wastewater received a dose of 4 ppm of each of the four ferric chelants (mass calculated as chelant) just prior to addition of ozone.
Ozone addition was accomplished using an ozone generator from Ozone Solutions, Sioux Center, Iowa. The generator was capable of generating up to 2 grams per hour of ozone. Injection of ozone into the wastewater was accomplished using an injection system from Ozone Solutions called the H2O-Mini. The unit is designed to treat from 1.5 to 5.7 liters per minute of wastewater. The unit was set up to deliver 6.7 mg/minute of dissolved ozone (assumed the 80% efficiency of dissolution noted by the manufacturer) to wastewater passing the injection nozzle within the H2O-mini. Each test was designed for maximum wastewater flow through the H2O-mini (5.7 liters/min).
An objective of the study will be to treat most, but not all, of the sulfide present within the individual test samples in order to determine which treatment was more efficient than the others.
Samples were taken over twenty minutes of contact time from the recirculation vessel after ozonation. For each of the four ferric chelant studies, chelants were added to the wastewater recirculation vessels just prior to starting the injection of ozone and recirculation of the liquids. The injection of ozone was applied over the prescribed period and sampled as before in the ozone only experiment.

[13] = Full scale lagoon treatment system (spray)
From the text: The system was designed to treat sulfide and recirculate sulfide-free wastewater from the lagoon in a continuous manner and reuse the treated wastewater in such a manner as to gain substantially complete control of hydrogen sulfide escaping to the atmosphere. […] The capping of the lagoon was accomplished by spray applying sulfide-free treated wastewater using a spray application system specifically designed to gain complete or nearly complete coverage of the surface area of the lagoon. Importantly, the spray application system imparted minimal mixing to the untreated surface of the lagoon. Any significant mixing of the surface water within the lagoon could be problematic for hydrogen sulfide release. Gently spray-applying sulfide-free water over the lagoon served to effectively cap the lagoon with minimal mixing, thus preventing gaseous sulfide from escaping to the atmosphere. Further, by assuring that the treated wastewater returning to the lagoon surface contained excess oxidation treatment chemicals, any fugitive sulfide that might have risen through the cap could be mitigated.
The water proceeding eastward turns north at the end of the lagoon and travelling back westward where it is pumped out of the lagoon at the northwest end.
This system is primarily driven by a large electrically powered Cornell pump denoted by the “Pump” box in FIG. 5. The pump sits on a 40′ wide elevated dyke that runs down the center of the lagoon. Water is pumped out of the northwest side of the lagoon via a 12″ HDPE “Pump Intake” pipe and flows through the Cornell pump and then down the dyke in the center of the lagoon via an 8″ HDPE main pipe. […] These injection locations are designated by the “1” and “2” circles in FIG. 5. T valves were installed into the 8″ main line, redirecting a portion of the water from the 8″ main pipe out to each of 27 different floats via 2″ HDPE piping. The Nelson F100 series Big Gun spray irrigation heads were mounted on the floats and directly connected to the 2″ HDPE piping. Around 47 PSI of water pressure was constantly maintained to allow sufficient working pressure for each of the 27 spray irrigation heads. The chemical being dosed into the line via the Verdeflex pumps was carefully calculated to ensure sufficient Ferric Gluconate and Hydrogen Peroxide were present in the line to not only ensure substantially complete destruction of all sulfide in the line but to provide a surplus of chemicals for additional treatment upon contact with any sulfides in the pond. […]
Prior to treatment initiation, samples were taken starting on Mar. […] A quantity of 45 gallons per hour (540 gallons per 12 hour period) of 50% Peroxide and 20 gallons per hour of Ferric Gluconate (240 gallons per 12 hour period) were pumped into the lagoon via the sprayer system.

[14] = Full scale lagoon treatment system using eductors; conditions: across all stations, eductor system, September 2016
Procedure: Due to concerns about fugitive airborne spray entering the environment and, potentially, drifting onto a nearby public road, SMBSC management requested an underwater eductor system be installed to replace the Nelson spray irrigation system described previously. Therefore, a full scale trial using a commercially available surface chemical application system and method was tested at the SMBSC. The objective of the test was to determine if a system designed to apply oxidation treatment chemicals just below the surface of the large wastewater lagoon at SMBSC was as effective as the spray system that minimized surface mixing. It was surmised that the system would achieve similar results to the spray application approach due to minimal disturbance to lagoon subsurface wastewater. The eductor system slowly spun in a circular pattern similar to the circular pattern of the spray system. The Serfilco eductor system pulled wastewater from the contaminated lagoon using the identical system of treatment used for the Nelson spray system. The only variation was the application mechanism of eduction versus spray. The eduction system relied on the force of the wastewater flowing back into the eductor distribution arms to force the circular motion of the arms distributing oxidation chemicals. All aspects of the system were the same except for the distribution system. […]

[15] = SMBSC pilot demonstration, lagoon spray system; conditions: Trial 1, samplings T2-T5
From the text: The exemplary system and method was designed to utilize 1.7 million gallons per day of the 35 to 40 million gallons of high strength wastewater within the lagoon as a carrier for treatment chemistry. Flow into the lagoon varied. Influent was mostly high organic strength wastewater. A typical daily flow rate approximated 500,000 gallons.
The utilized system and method sought to efficiently cover as much of the lagoon surface with treated wastewater containing excess quantities of treatment chemistry as practically possible. For spray nozzles, the system and method utilized 100 series Big Gun sprinklers (available from Nelson Irrigation Corporation of Walla Walla, Wash.) oriented in a pattern to assure maximum coverage of targeted surface area of the lagoon. […] The pressure varied depending on the demand of the spray nozzles and surface coverage demand. Further, the effectiveness relied somewhat on delivery of sufficient volume of treated wastewater containing excess treatment chemistry to the surface of the lagoon to adequately suppress sulfide at or near the surface of the lagoon. […] Treatment chemistry for the returned treated wastewater was dosed to treat sulfide within the uptake wastewater and over dosed with added treatment chemistry to accommodate the expected need for treatment within the surface water of the receiving lagoon. […] This dosage application assumed these ratios for each hour of continuous treatment.
The method used for this pilot study for dosing was estimated by taking surface and mid-depth samples of the untreated lagoon and testing for sulfide.
Station D1 referred to a dam where water flowed down through the dam into the remaining run of the retention lagoon.

[16] = spray system on, April 2016, date by row, same dosage

**Q.** For OO [H2O2, hydrogen peroxide], which “2,4-D” value [1] is on record?
**A.** 230 ppb

**Q.** And the Benzene after treatment [2]?
**A.** 15.1 ppb

**Q.** What about the Ethylbenzene after treatment [3] of the same molecule?
**A.** 13.0 ppb

**Q.** What about the Toluene after treatment [4] of the same molecule?
**A.** 55.7 ppb

**Q.** And the Xylenes after treatment [5]?
**A.** 67.0 ppb

**Q.** What about the MtBE after treatment [6] of the same molecule?
**A.** 15.7 ppb

**Q.** And the “Fecal Coliform” value (Fecal Coliform)?
**A.** 53 cfu/100 mL

**Q.** What about the “H2S reading after 10 minutes” value ([7]; 1 ml of 15 mg/ml H2O2) of the same molecule?
**A.** 6 ppm

**Q.** What about the “H2S reading after 10 minutes” value ([7]; 3 ml of 15 mg/ml H2O2) of the same molecule?
**A.** 4 ppm

**Q.** What about the “H2S reading after 10 minutes” value ([7]; 5 ml of 15 mg/ml H2O2 sprayed on 5 L water with 10 ppm total sulfide, pH 7.0) of the same molecule?
**A.** 3 ppm

**Q.** What about the “H2S Above H2O” value [8] of the same molecule?
**A.** 17 PPM

**Q.** And the “Total Sulfide 1 CM Depth” value [8]?
**A.** 8.5 mg/L

**Q.** What about the “Total Sulfide 2 CM Depth” value [8] of the same molecule?
**A.** 9.1 mg/L

**Q.** And the “Total Sulfide 3 CM Depth” value [8]?
**A.** 9.3 mg/L

**Q.** What about the “Percentage of Sulfide Treated After 30 Minutes” value ([9]; 1.5:1.0 peroxide to sulfide, Dose 3, 38.7 ppm H2O2 only (control run of the chelant named in the row)) of the same molecule?
**A.** 59.0 and 46.5 and 56.3 and 57.0 and 55.5 and 54.7

**Q.** What about the “Percentage of Sulfide Treated After 30 Minutes” value ([9]; 2.5:1.0 peroxide to sulfide, Dose 3, 105.8 ppm H2O2 only (control run of the chelant named in the row)) of the same molecule?
**A.** 69.0 and 69.5 and 67.8 and 66.4 and 44.4 and 69.3 and 70.2

**Q.** What about the “sulfide reduction after 15 minutes, average” value ([9]; hydrogen peroxide alone, 2.5:1.0 peroxide to sulfide) of the same molecule?
**A.** 52%

**Q.** And the “sulfide treatment after 15 minutes” value ([9]; peroxide alone, 37.8 ppm level)?
**A.** 42.9%

**Q.** For O=C([O-])[C@H](O)[C@@H](O)[C@H](O)[C@H](O)CO.[Na+] [Sodium gluconate, sodium gluconate], which readily biodegradable [10] is on record?
**A.** 98%

**Q.** Which results are given for ferric gluconate [Fe-GLC]?
**A.** Test 1 CFUs/ml 19.8 ppm H2O2 6 ppm Fe-Chelant [11]: 98 CFUs/ml; Test 2 CFUs/ml 39.6 ppm H2O2 12 ppm Fe-Chelant [11]: 28 CFUs/ml; Test 3 CFUs/ml 12 ppm Fe-Chelant ([11]; chelant alone, no H2O2): 22,600 CFUs/ml; Overall total percentage of sulfide reduction [12]: 90%; Overall total percentage of sulfide reduction ([12]; listed as Fe-Gluconate): 90%; sulfide remaining ([12]; 5 min contact): 3.40 ppm; sulfide remaining ([12]; 10 min contact): 2.80 ppm; sulfide remaining ([12]; 20 min contact): 1.40 ppm; average sulfide measurement ([13]; one month, five sampling locations, spray system, untreated average 1.06 mg/l): 0.06 mg/L; Aqueous Sulfide, Station 1 (surface) [13, 16]: 0.00 mg/L; Aqueous Sulfide, Station 4 (surface) [13, 16]: 0.00 mg/L; sulfide in wastewater spray upon exiting the spray nozzles ([13]; with proper dosage of oxidation chemicals): 0.00 mg/L; average sulfide measurement [14]: 2.14 mg/L; Aqueous Sulfide, location 1S ([15]; same dosage, T1 before treatment 1.35): 0 ppm and 0.00 ppm; Gaseous Sulfide downwind at lagoon edge, Station 2 [15]: 0.00 ppm; Gaseous Sulfide downwind at lagoon edge, Station 3 [15]: 0.00 ppm; sulfide reduction after 15 minutes ([9]; 20 ppm chelant and 105.8 ppm hydrogen peroxide): 86.8%
